# According to US20210300943A1, “OGA INHIBITOR COMPOUNDS” (Janssen Pharmaceutica NV, priority 2018, published 2021):
# Columns and labels:
# [1] = target: T1, recombinant human Meningioma Expressed Antigen 5 (MGEA5), also referred to as O-GlcNAcase (OGA) (Homo sapiens, UniProt O60502); assay: OGA biochemical assay (inhibition of FM-GlcNAc hydrolysis, fluorescence); settings: for Emax / Enzymatic Emax (%): maximal effect; for Emax: read-out: Enzymatic Emax (%); for IC50: read-out: Enzymatic hOGA, pIC50 (converted)
# T1 construct: Full length OGA enzyme was purchased at OnGene (cat #TP322411); purchased OnGene (so in the source)
# T1 sequence (O60502 1-916): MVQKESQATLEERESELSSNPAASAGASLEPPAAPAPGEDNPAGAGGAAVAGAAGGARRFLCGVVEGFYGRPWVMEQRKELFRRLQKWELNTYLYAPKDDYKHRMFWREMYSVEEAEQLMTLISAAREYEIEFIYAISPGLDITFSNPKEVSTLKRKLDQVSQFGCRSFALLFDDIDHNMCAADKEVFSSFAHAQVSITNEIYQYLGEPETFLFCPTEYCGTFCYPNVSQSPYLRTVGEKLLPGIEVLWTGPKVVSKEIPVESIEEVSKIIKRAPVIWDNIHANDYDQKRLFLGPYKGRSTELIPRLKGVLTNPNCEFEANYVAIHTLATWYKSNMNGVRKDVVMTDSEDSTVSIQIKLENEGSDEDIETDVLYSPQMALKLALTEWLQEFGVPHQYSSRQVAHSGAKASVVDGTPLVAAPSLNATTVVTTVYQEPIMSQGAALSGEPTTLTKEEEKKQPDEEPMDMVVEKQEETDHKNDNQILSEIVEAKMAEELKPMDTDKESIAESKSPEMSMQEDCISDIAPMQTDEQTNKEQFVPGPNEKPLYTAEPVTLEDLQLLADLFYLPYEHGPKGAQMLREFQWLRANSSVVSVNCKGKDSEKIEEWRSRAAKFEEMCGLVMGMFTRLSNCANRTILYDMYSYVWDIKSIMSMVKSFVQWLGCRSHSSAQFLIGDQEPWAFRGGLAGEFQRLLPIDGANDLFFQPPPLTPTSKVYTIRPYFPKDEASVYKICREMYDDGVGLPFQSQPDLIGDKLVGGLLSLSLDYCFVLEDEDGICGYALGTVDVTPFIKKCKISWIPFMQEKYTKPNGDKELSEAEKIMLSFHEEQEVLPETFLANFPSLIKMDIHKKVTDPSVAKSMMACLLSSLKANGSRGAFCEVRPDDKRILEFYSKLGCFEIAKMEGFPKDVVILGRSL
# Outline: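 Full-length recombinant OGA (2 nM) pre-incubated with compound 60 min at room temperature, then FM-GlcNAc (100 µM final) added in citrate/phosphate buffer pH 7.2 with 0.005% Tween-20. After 6 h at room temperature, stopped with carbonate pH 11.0; fluorescein read at 485/538 nm; IC50 and Hill coefficient from curve fit.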
# OGA = target: T2, OGA (Homo sapiens, UniProt O60502); assay: OGA cellular assay (ICC detection of O-GlcNAcylated proteins in HEK293 cells inducible for P301L mutant human Tau); type: cell-based; settings: for Emax: HEK293, HEK293 cells inducible for P301L mutant human Tau; for Emax / Cellular Emax (%): maximal effect, Thiamet G 200 uM as maximum; for EC50 / Cellular Emax (%): HEK293 cells inducible for P301L mutant human Tau; for EC50: 6 hours incubation, read-out: Cellular hOGA, pEC50 (converted)
# T2 construct: endogenous in cells; host or cells: HEK293 cells inducible for P301L mutant human Tau (2N4R)
# T2 sequence (O60502 1-916): T1 sequence (O60502 1-916)
# Method: HEK293 cells inducible for P301L mutant human Tau (isoform 2N4R) were established at Janssen. Thiamet-G was used for both plate validation (high control) and as reference compound (reference EC50 assay validation). OGA inhibition is evaluated through the immunocytochemical (ICC) detection of O-GlcNAcylated proteins by the use of a monoclonal antibody (CTD110.6; Cell Signaling, #9875) detecting 0-GlcNAcylated residues as previously described (Dorfmueller et al. 2010 Chemistry & biology, 17:1250). Inhibition of OGA will result in an increase of O-GlcNAcylated protein levels resulting in an increased signal in the experiment. Cell nuclei are stained with Hoechst to give a cell culture quality control and a rough estimate of immediate compounds toxicity, if any. ICC pictures are imaged with a Perkin Elmer Opera Phenix plate microscope and quantified with the provided software Perkin Elmer Harmony 4.1.
# Cells were propagated in DMEM high Glucose (Sigma, #D5796) following standard procedures. 2 days before the cell assay cells are split, counted and seeded in Poly-D-Lysine (PDL) coated 96-wells (Greiner, #655946) plate at a cell density of 12,000 cells per cm^2 (4,000 cells per well) in 100 μl of Assay Medium (Low Glucose medium is used to reduce basal levels of GlcNAcylation) (Park et al. 2014 The Journal of biological chemistry 289:13519). At the day of compound test medium from assay plates was removed and replenished with 90 μl of fresh Assay Medium. 10 μl of compounds at a 10 fold final concentration were added to the wells. Plates were centrifuged shortly before incubation in the cell incubator for 6 hours. DMSO concentration was set to 0.2%. Medium is discarded by applying vacuum. For staining of cells medium was removed and cells washed once with 100 μl D-PBS (Sigma, #D8537). From next step onwards unless other stated assay volume was always 50 μl and incubation was performed without agitation and at room temperature. Cells were fixed in 50 μl of a 4% paraformaldehyde (PFA, Alpha aesar, #043368) PBS solution for 15 minutes at room temperature. […] Before analysis samples were washed 2 times manually for 5 minutes in ICC base buffer.
# Imaging is performed using Perkin Elmer Phenix Opera using a water 20× objective and recording 9 fields per well. Intensity readout at 488 nm is used as a measure of O-GlcNAcylation level of total proteins in wells. To assess potential toxicity of compounds nuclei were counted using the Hoechst staining. IC50-values are calculated using parametric non-linear regression model fitting. As a maximum inhibition Thiamet G at a 200 uM concentration is present on each plate. In addition, a concentration response of Thiamet G is calculated on each plate.
Compound,Emax [1] [%],IC50 [1] [nM],Emax (OGA) [%],EC50 (OGA) [nM],Cellular Emax (%) (OGA),Enzymatic Emax (%) [1] [%]
"Cc1cc([C@@H]2CCCN(C(C)c3nc4c(cc3F)OCCO4)C2)cc(C)n1 (single isomer, unassigned) [Product 165]",100,63.1,80,100,–,–
"Cc1cc(CO[C@H]2CCCN(C(C)c3ccc4c(n3)OCCO4)C2)cc(C)n1 (single isomer, unassigned) [Product 166]",98,10,–,100,67,–
"Cc1cc(CO[C@H]2CCCN(C(C)c3ccc4c(n3)OCCO4)C2)cc(C)n1 (single isomer, unassigned) [Product 167]",–,158,–,> 1000,26,97
"Cc1cc(CO[C@H]2CCCN(C(C)c3nc4c(cc3F)OCCO4)C2)cc(C)n1 (single isomer, unassigned) [Product 169]",85,2000,–,> 1000,−5,–
"Cc1cc(CO[C@H]2CCCN(C(C)c3nc4c(cc3F)OCCO4)C2)cc(C)n1 (single isomer, unassigned) [Product 170]",–,3.16,–,12.6,79,98
"Cc1cc(CC2(F)CCCN([C@H](C)c3nc4c(cc3F)OCCO4)C2)cc(C)n1 (single isomer, unassigned) [Product 174]",99,6.31,75,63.1,–,–
"Cc1cc(CC2(F)CCCN([C@@H](C)c3ccc4c(n3)OCCO4)C2)cc(C)n1 (single isomer, unassigned) [Product 177]",81,2510,-8,> 1000,–,–
"COc1cc(OC[C@H]2CCCN([C@H](C)c3ccc4c(n3)OCCO4)C2)cc(C)n1 (single isomer, unassigned) [Product 183]",99,7.94,65,50.1,–,–
"COc1cc(OC[C@H]2CCCN(C(C)c3ccc4c(n3)OCCO4)C2)cc(C)n1 (single isomer, unassigned) [Product 184]",87,2000,-17,> 1000,–,–
"Cc1cc([C@H]2CCCN([C@H](C)c3ccc4c(n3)OCCO4)C2)c(F)c(C)n1 (single isomer, unassigned) [Product 186]",83,2000,-6,> 1000,–,–
Cc1cc(C2CCCN(C(C)c3ccc4c(n3)OCCO4)C2)cc(C)n1 (stereo not shown) [Product 1],102,20,77,100,–,–
Cc1cc(C2CCCN(C(C)c3ccc4c(n3)OCCO4)C2)cc(C(F)(F)F)n1 (stereo not shown) [Product 8],100,15.8,86,200,–,–
Cc1cc(C2CCCN(C(C)c3cc4c(cc3F)OCCO4)C2)cc(C(F)(F)F)n1 (stereo not shown) [Product 9],102,10,92,50.1,–,–
COc1cc(C2CCCN(C(C)c3ccc4c(n3)OCCO4)C2)cc(C(F)(F)F)n1 (stereo not shown) [Product 10],100,25.1,52,977,–,–
COc1cc(C2CCCN(C(C)c3cc4c(cc3F)OCCO4)C2)cc(C(F)(F)F)n1 (stereo not shown) [Product 11],103,20,70,316,–,–
Cc1cc(OC2CCCN(C(C)c3cnc4c(c3)OCCN4)C2)cc(C)n1 (stereo not shown) [Product 14],101,5.01,60,631,–,–
Cc1cc(OC2CCCN(C(C)c3cc4c(cc3F)OCCO4)C2)cc(C(F)(F)F)n1 (stereo not shown) [Product 15],103,20,16,> 1000,–,–
COc1cc(OC2CCCN(C(C)c3ccc4c(n3)OCCO4)C2)cc(C)n1 (stereo not shown) [Product 18],100,50.1,57,794,–,–
Cc1cc(NCC2CCCN(C(C)c3ccc4c(c3)OCC4)C2)cc(C)n1 (stereo not shown) [Product 22],104,7.94,82,7.94,–,–
COc1cc(NCC2CCCN(C(C)c3ccc4c(n3)OCCO4)C2)cc(C)n1 (stereo not shown) [Product 23],100,10,81,7.94,–,–

# The next lines start with the values.
Emax [1] [%],IC50 [1] [nM],Emax (OGA) [%],EC50 (OGA) [nM],Cellular Emax (%) (OGA),Enzymatic Emax (%) [1] [%],Compound
100,3.16,86,6.31,–,–,"Cc1cc([C@H]2CCCN(C(C)c3nc4c(cc3F)OCCO4)C2)cc(C)n1 (single isomer, unassigned) [Product 164]"
100,2.51,78,2.51,–,–,"Cc1cc([C@H]2CCCN(C(C)c3nc4c(cc3F)CCO4)C2)cc(C)n1 (single isomer, unassigned) [Product 171]"
92,1000,1,> 1000,–,–,"Cc1cc(CC2(F)CCCN([C@@H](C)c3nc4c(cc3F)OCCO4)C2)cc(C)n1 (single isomer, unassigned) [Product 175]"
99,15.8,69,126,–,–,"Cc1cc(CC2(F)CCCN([C@H](C)c3ccc4c(n3)OCCO4)C2)cc(C)n1 (single isomer, unassigned) [Product 176]"
100,200,72,251,–,–,"Cc1cc(OC[C@H]2CCCN(C(C)c3nc4c(cc3F)CCO4)C2)cc(C)n1 (single isomer, unassigned) [Product 179]"
–,1.58,–,1,79,99,"Cc1cc(OC[C@H]2CCCN(C(C)c3nc4c(cc3F)CCO4)C2)cc(C)n1 (single isomer, unassigned) [Product 180]"
103,12.6,77,100,–,–,COc1cc(C2CCCN(C(C)c3ccc4c(n3)OCCO4)C2)cc(C)n1 (stereo not shown) [Product 7]
103,5.01,88,15.8,–,–,Cc1cc(NCC2CCCN(C(C)c3ccc4c(n3)OCCO4)C2)cc(C)n1 (stereo not shown) [Product 21]
